Measured values published in patent US11427869B2, “T cell balance gene expression, compositions of matters and methods of use thereof” (THE BROAD INSTITUTE, INC., priority 2015, dated 2022).

Legend:
Th17 cells = experiment: qPCR of gene expression (cyp51, sc4mol, pathogenicity signature) in Th17 cells with exogenous fatty acid; assay type: cell-based, mouse
Rorγt = target: T1, Rorγt (Mus musculus, UniProt P51450); experiment: Rorγt ChIP-qPCR in Th17 cells; assay type: cell-based; conditions: WT Th17 cells, TGF-β1+IL-6 96h; 10 μM fatty acid added at day 0
T1 construct: expressed in transfected cells; host or cells: EL4 cells stably transfected with Rorγt vector
T1 sequence (P51450 1-495 isoform P51450-2): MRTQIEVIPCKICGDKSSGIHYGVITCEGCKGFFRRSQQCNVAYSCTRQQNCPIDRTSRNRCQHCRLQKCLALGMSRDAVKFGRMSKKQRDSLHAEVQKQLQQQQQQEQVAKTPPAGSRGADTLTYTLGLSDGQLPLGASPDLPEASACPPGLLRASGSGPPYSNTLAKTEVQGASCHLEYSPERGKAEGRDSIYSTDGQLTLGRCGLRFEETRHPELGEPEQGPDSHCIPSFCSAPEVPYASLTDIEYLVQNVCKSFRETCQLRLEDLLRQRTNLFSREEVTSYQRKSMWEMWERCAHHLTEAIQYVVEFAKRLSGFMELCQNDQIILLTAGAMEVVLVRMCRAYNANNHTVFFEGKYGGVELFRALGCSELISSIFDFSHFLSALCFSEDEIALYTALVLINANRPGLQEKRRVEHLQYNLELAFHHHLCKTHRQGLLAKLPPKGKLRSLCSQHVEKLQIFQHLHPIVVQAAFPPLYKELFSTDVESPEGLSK
Description: (FIG. 18A, FIG. 18B) Rorγt ChIP-PCR analyses in WT and CD5L−/− Th17 cells. WT, CD5L−/− and Rorγt−/− Th17 cells were differentiated with TGF-1+IL-6 for 96h. Enrichment of Rorγt binding to genomic regions of Il17 (FIG. 18A) and Il10 (FIG. 18B) is measured using qPCR. […] Three independent experiments were performed.

[1] = mice fed with a diet rich in PUFA (Monk et al., 2012, 2013); cited from earlier work
[2] = Th17 cells differentiated with TGF-β1+IL-6

Rorγt binding at Il17 and Il23r loci (ChIP-PCR) (Rorγt): decreased such binding
Compound: CCCCC/C=C\C/C=C\C/C=C\C/C=C\CCCC(=O)O [PUFA, arachidonic acid]
expression of cyp51 and sc4mol mRNA (Th17 cells; CD5L−/− Th17 cells (TGF-β1+IL-6), fatty acid 25 uM added at 48h, analyzed at 96h): abolished the increased expression of the enzymes | Il22 expression (qPCR) (Th17 cells; [2]): increased | effector molecule expression of the pathogenicity signature (Il10, Il23r, Ccl5, Csf2, Lag3; qPCR) (Th17 cells; [2]): reciprocally regulated | Rorγt binding to the Il10 CNS-9 locus (ChIP-PCR) (Rorγt): increased Rorγt binding to the Il10 CNS-9 locus | severity of chronic colitis and Th17 cell polarization [1]: reduced severity of chronic colitis and Th17 cell polarization
